From PMC7093396 (Scientific Reports, 2020) come the findings set out here.

Values after ≈ are worked out from the molar mass of the structure shown.

Assay [1] relates to T1, B. bacteriovorus HD100.
T1 construct: HD100
As to the kind of experiment: microbe, parasite or virus in culture. Conditions: Escherichia coli, HD100, 24 h; co-culture with E. coli BW25113 prey, theoretical MIC at PPR 0.02. Also noted: species or system B. bacteriovorus HD100 with E. coli BW25113 prey; Predatory growth on E. coli prey, OD600 reduction, Gompertz-fit MIC by linear regression at PPR 0.02. The protocol: Two-fold serial dilutions of antibiotics (Table S6) were made along the rows of 96-well plates (BRANDplates pureGrade^TM S, no. 781662) in 100 µL Ca/HEPES buffer (5.94 g/L HEPES free acid, 0.284 g/L calcium chloride 2·H2O, adjusted to pH 7.6 with NaOH), including controls (no antibiotic present). B. bacteriovorus cultures were diluted by a factor of 25 in Ca/HEPES buffer. B. bacteriovorus two-fold serial dilutions were prepared in a new sterile 96-well plate along the column line (using as diluent a suspension of heat-inactivated B. bacteriovorus), including controls (no viable B. bacteriovorus present). Fifty µL of these dilution series were transferred from each well of the latter plate to the corresponding wells of plates with antibiotic dilution series. Subsequently, 50 µL of an E. coli BW25113 overnight culture grown in YPSC broth was added to each plate well. At this point, which corresponds to time zero, the blank was determined by measuring the OD600 of cell suspensions in a plate reader (TECAN Infinite 200 Pro). Final OD600 measurements were carried out after an incubation of 24 hours at 29 °C under shaking conditions (300 rpm, 3 mm throw). The number of E. coli cells was estimated by reading the OD600 of the overnight culture prior to the beginning of the assay. The number of viable B. bacteriovorus cells was estimated by plating in double layer YPSC agar plates as explained elsewhere. Following an incubation time of three days at 29 °C, the number of B. bacteriovorus cells in the initial inoculation culture was estimated by counting plaque forming units (PFU). Enumeration of B. bacteriovorus by plaques count ensures that only viable cells are counted and, in our experience, is preferable over other methods based on microscopy and/or fluorescence. Pictures of plaques were acquired by the aid of a plaque visualization chamber, specially developed in this study for this purpose (Fig. S9). All absorbance values were subtracted of the related blanks. Then, absorbance values of test samples (B. bacteriovorus co-cultures) were subtracted from the control values (E. coli without B. bacteriovorus) and plotted in graph against the logarithm of antibiotic concentrations. The resulting Δ curve is an indication of B. bacteriovorus growth. Data was expressed as percentage of growth and plotted in a graph of log(inhibitor) vs. response. The minimal inhibitory concentration (MIC) value was defined as the concentration of antibiotic that prevent B. bacteriovorus growth and were calculated by fitting B. bacteriovorus growth inhibition curves with a Gompertz modified equation[15] (using GraphPad Prism 5). […] Direct cell growth measurements of B. bacteriovorus upon prey bacteria can be estimated by reduction of the optical density at 600 nm (OD600) (i.e. the loss of culture turbidity by B. bacteriovorus-induced lysis of prey cells). In this study, we designed a 96-well based method for the determination of antibiotic MICs for B. bacteriovorus. B. bacteriovorus HD100 cells were added to an E. coli culture and the reduction of OD600 measured in absence and presence of different concentrations of antibiotics. Assays were conducted in a solution of Ca/HEPES buffer and the exhausted medium transferred with the E. coli overnight culture and the B. bacteriovorus dilution. Therefore, E. coli cells were in the stationary phase and their growth during the assays was negligible. […] MIC values are dependent on the initial PPR used in the assay, as standard MIC assays are dependent on the initial bacterial concentration. However, B. bacteriovorus numbers and therefore, the initial PPR can be estimated reliably only after the assay by plating in double layer agar plates. The relation between initial PPR and MIC values was then investigated by adding different numbers of B. bacteriovorus cells to the fixed number of E. coli prey cells in parallel replicated experiments (on different rows of the same plate containing replicated antibiotic serial dilutions). […]

In assay [2] the test system is T2, E. coli BW25113.
T2 construct: BW25113
As to the kind of experiment: microbe, parasite or virus in culture. Set-up: Broth dilution growth at OD600 in Ca/HEPES:YPSC, 29 °C, Gompertz-fit MIC. Conditions: Escherichia coli, BW25113, 24 h; Ca/HEPES:YPSC, 29 °C, non-standard MIC. As for the experimental part: Serial antibiotic dilutions in 100 µL Ca/HEPES were made along the rows of 96-well plates including controls without antibiotic. E. coli BW25113 cells from an overnight culture were washed and re-suspended in Ca/HEPES buffer to a final OD600 of 0.024. Aliquots of 50 µL of this E. coli suspension and 50 µL of a fresh YPSC broth were added to the wells of these plates and the blank measured at 600 nm. Final OD600 measurements were carried out after an incubation of 24 hours at 29 °C under shaking conditions. Data is shown as percentage of growth and plotted in a graph against the logarithm of antibiotic concentration. MIC values were calculated by fitting data with a Gompertz modified equation[15] (using GraphPad Prism 5). […] Antibiotics characterized by a high B. bacteriovorus/E. coli MIC ratio, such as amikacin, kanamycin, gentamicin and aztreonam (Table 1), are of particular interest for a B. bacteriovorus based co-therapy against E. coli infections.

On to `NCC[C@H](O)C(=O)N[C@@H]1C[C@H](N)[C@@H](O[C@H]2O[C@H](CN)[C@@H](O)[C@H](O)[C@H]2O)[C@H](O)[C@H]1O[C@H]1O[C@H](CO)[C@@H](O)[C@H](N)[C@H]1O` [Amikacin], for which the MIC in assay [1] was 0.7 ± 0.02 µg/mL (≈ 1.2 µM); in assay [2] it was 0.06 µg/mL (≈ 0.102 µM).
For `CC1(C)S[C@@H]2[C@H](NC(=O)[C@H](N)c3ccccc3)C(=O)N2[C@H]1C(=O)O` [Ampicillin] the same measures were 1.3 ± 0.2 µg/mL (≈ 3.72 µM) and 5.4 µg/mL (≈ 15.5 µM).
For `C[C@H]1[C@H](NC(=O)/C(=N\OC(C)(C)C(=O)O)c2csc(N)n2)C(=O)N1S(=O)(=O)O` [Aztreonam] the same measures were 41 ± 4 µg/mL (≈ 94.2 µM) and 5.7 µg/mL (≈ 13.1 µM).
On to `N[C@@H](C(=O)N[C@@H]1C(=O)N2C(C(=O)O)=C(Cl)CS[C@H]12)c1ccccc1` [Cefaclor], for which the MIC was found to be 18 ± 2 µg/mL (≈ 48.9 µM) in assay [1] and 10 µg/mL (≈ 27.2 µM) in assay [2].
For `Cc1nnc(SCC2=C(C(=O)O)N3C(=O)[C@@H](NC(=O)Cn4cnnn4)[C@H]3SC2)s1` [Cefazolin] the same measures were 0.51 ± 0.07 µg/mL (≈ 1.12 µM) and 2 µg/mL (≈ 4.4 µM).
Consider `CCN1CCN(C(=O)N[C@@H](C(=O)N[C@@H]2C(=O)N3C(C(=O)O)=C(CSc4nnnn4C)CS[C@H]23)c2ccc(O)cc2)C(=O)C1=O` [Cefoperazone], for which the MIC was determined as 1.3 ± 0.3 µg/mL (≈ 2.01 µM) in assay [1] and 0.6 µg/mL (≈ 0.929 µM) in assay [2].
In the same order, the values of `CC(C)(O/N=C(\C(=O)N[C@@H]1C(=O)N2C(C(=O)[O-])=C(C[n+]3ccccc3)CS[C@H]12)c1csc(N)n1)C(=O)O` [Ceftazidime] are 7.8 ± 0.4 µg/mL (≈ 14.3 µM) and 19 µg/mL (≈ 34.8 µM).
In the same order, the values of `O=C(N[C@H](CO)[C@H](O)c1ccc([N+](=O)[O-])cc1)C(Cl)Cl` [Chloramphenicol] are 0.16 µg/mL (≈ 0.495 µM) and 10 µg/mL (≈ 30.9 µM).
Turning to `O=C(O)c1cn(C2CC2)c2cc(N3CCNCC3)c(F)cc2c1=O` [Ciprofloxacin], the MIC in assay [1] amounted to 0.31 ± 0.04 µg/mL (≈ 0.936 µM); in assay [2] it was 0.13 µg/mL (≈ 0.392 µM).
For `CNC(C)[C@@H]1CC[C@@H](N)[C@@H](O[C@H]2[C@H](O)[C@@H](O[C@H]3OC[C@](C)(O)[C@H](NC)[C@H]3O)[C@H](N)C[C@@H]2N)O1` (stereo partly shown) [Gentamicin] the same measures were 0.06 µg/mL (≈ 0.126 µM) and 0.0084 µg/mL (≈ 0.0176 µM).
For `NC[C@H]1O[C@H](O[C@H]2[C@H](O)[C@@H](O[C@H]3O[C@H](CO)[C@@H](O)[C@H](N)[C@H]3O)[C@H](N)C[C@@H]2N)[C@H](O)[C@@H](O)[C@@H]1O` [Kanamycin] the same measures were 0.69 ± 0.06 µg/mL (≈ 1.42 µM) and 0.081 µg/mL (≈ 0.167 µM).
Consider `C[C@H]1COc2c(N3CCN(C)CC3)c(F)cc3c(=O)c(C(=O)O)cn1c23` [Levofloxacin], for which the MIC was 0.23 ± 0.02 µg/mL (≈ 0.636 µM) in assay [1] and 0.064 µg/mL (≈ 0.177 µM) in assay [2].
`CCC[C@@H]1C[C@@H](C(=O)N[C@@H]([C@H]2O[C@H](SC)[C@H](O)[C@@H](O)[C@H]2O)[C@@H](C)O)N(C)C1` [Lincomycin] returned an MIC in assay [1] of 7.9 ± 0.9 µg/mL (≈ 19.4 µM).
With `C[C@@H](O)[C@H]1C(=O)N2C(C(=O)O)=C(S[C@@H]3CN[C@H](C(=O)N(C)C)C3)[C@H](C)[C@H]12` [Meropenem], the MIC in assay [1] was 0.42 ± 0.06 µg/mL (≈ 1.1 µM); in assay [2], 0.14 µg/mL (≈ 0.365 µM).
In the same order, the values of `CC1(C)S[C@@H]2[C@H](NC(=O)Cc3ccccc3)C(=O)N2[C@H]1C(=O)O` [Penicillin G] are 3.4 ± 0.5 µg/mL (≈ 10.2 µM) and 19 µg/mL (≈ 56.8 µM).
For `CCN1CCN(C(=O)N[C@@H](C(=O)N[C@@H]2C(=O)N3[C@@H]2SC(C)(C)[C@@H]3C(=O)O)c2ccccc2)C(=O)C1=O` [Piperacillin] the same measures were 2.5 ± 0.5 µg/mL (≈ 4.83 µM) and 122 µg/mL (≈ 236 µM).
Take `COc1cc(Cc2cnc(N)nc2N)cc(OC)c1OC` [TMP, trimethoprim]: the MIC in assay [1] is 223 ± 24 µg/mL (≈ 768 µM).
Regarding `CN(C)[C@@H]1C(O)=C(C(N)=O)C(=O)[C@@]2(O)C(O)=C3C(=O)c4c(O)cccc4[C@@](C)(O)[C@H]3C[C@@H]12` [Tetracycline], the MIC in assay [1] is 1.7 ± 0.2 µg/mL (≈ 3.83 µM); in assay [2] it was 4.8 µg/mL (≈ 10.8 µM).
In the same order, the values of `CN(C)c1cc(NC(=O)CNC(C)(C)C)c(O)c2c1C[C@H]1C[C@H]3[C@H](N(C)C)C(O)=C(C(N)=O)C(=O)[C@@]3(O)C(O)=C1C2=O` [Tigecycline] are 0.59 ± 0.01 µg/mL (≈ 1.01 µM) and 2.3 µg/mL (≈ 3.93 µM).
`CN[C@H](CC(C)C)C(=O)N[C@H]1C(=O)N[C@@H](CC(N)=O)C(=O)N[C@H]2C(=O)N[C@H]3C(=O)N[C@H](C(=O)N[C@H](C(=O)O)c4cc(O)cc(O)c4-c4cc3ccc4O)[C@H](O)c3ccc(c(Cl)c3)Oc3cc2cc(c3O[C@@H]2O[C@H](CO)[C@@H](O)[C@H](O)[C@H]2O[C@H]2C[C@](C)(N)[C@H](O)[C@H](C)O2)Oc2ccc(cc2Cl)[C@H]1O` [Vancomycin] returned an MIC in assay [1] of 16 ± 1 µg/mL (≈ 11 µM).
